Assays:
[1] = single or first pKa value; cited from earlier work
[2] = cited from earlier work
[3] = biological target: T1, FTH ferritin (Homo sapiens, UniProt P02794); test: one-step process incorporation of small molecule agents into FTH ferritin; assay type: physicochemical; conditions: for Incorporation efficiency (wt %) / Number of agent incorporated: 60 min; for Optimal pH in reaction: pH of buffer giving the largest amount of incorporation within ferritin
T1 construct: made in house; host or cells: Escherichia coli BL21 (DE3), plasmid pET20-FTH
T1 sequence (P02794 whole entry): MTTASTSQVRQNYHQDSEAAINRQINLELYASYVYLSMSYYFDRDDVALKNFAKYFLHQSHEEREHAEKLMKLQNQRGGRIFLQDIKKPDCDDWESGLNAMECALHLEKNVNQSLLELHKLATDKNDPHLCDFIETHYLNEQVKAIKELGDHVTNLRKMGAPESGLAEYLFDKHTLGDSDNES
Procedure: All of the reactions were performed in 0.1 mL volume. […] The absorbances were measured using spectrophotometer (DU-800, Beckman Coulter Inc.) for these solutions, and the concentration of contained protein was determined using the protein assay CBB solution (Nacalai Tesque, Inc.) as well as bovine albumin as a standard. Absorbances at 280 nm and 480 nm were measured for Rhodamine B and Congo Red. […] Then, after the absorbances were calibrated based on the absorbances that were derived from the proteins and presumed by the amount of contained protein quantified using the protein assay CBB solution, the concentrations of small molecule agents were determined based on the calibration curves obtained by the absorbances of the molecules. […] As a result, the one-step process enabled incorporating also the small molecule agents with different physical properties such as molecular weight and pKa simply and easily.

In the case of `Nc1c(/N=N/c2ccc(-c3ccc(/N=N/c4cc(S(=O)(=O)[O-])c5ccccc5c4N)cc3)cc2)cc(S(=O)(=O)[O-])c2ccccc12.[Na+].[Na+]` [Congo Red], the pKa [1] is given as 4.1, the logP [2] is given as −1.88 and the “Incorporation efficiency (wt %)” value ([3]; pH 3, 25° C.) is given as 0.0 wt %. For the same compound, the “Number of agent incorporated” value ([3]; pH 3, 25° C.) was 0.2, the “Incorporation efficiency (wt %)” value ([3]; pH 4, 25° C.) was 0.5 wt % and the “Number of agent incorporated” value ([3]; pH 4, 25° C.) was 3.7. For the same compound, the “Incorporation efficiency (wt %)” value ([3]; pH 5, 25° C.) was 0.1 wt %, the “Number of agent incorporated” value ([3]; pH 5, 25° C.) was 1.0 and the “Incorporation efficiency (wt %)” value ([3]; pH 6, 10° C.) was 0.2 wt %. The “Number of agent incorporated” value ([3]; pH 6, 10° C.) was 1.4, the “Incorporation efficiency (wt %)” value ([3]; pH 6, 20° C.) was 0.2 wt % and the “Number of agent incorporated” value ([3]; pH 6, 20° C.) was 1.4. The “Incorporation efficiency (wt %)” value ([3]; pH 6, 25° C.) was 0.1 wt %, the “Number of agent incorporated” value ([3]; pH 6, 25° C.) was 0.9 and the “Incorporation efficiency (wt %)” value ([3]; pH 6, 30° C.) was 0.2 wt %. The “Number of agent incorporated” value ([3]; pH 6, 30° C.) was 1.6, the “Incorporation efficiency (wt %)” value ([3]; pH 6, 40° C.) was 0.2 wt % and the “Number of agent incorporated” value ([3]; pH 6, 40° C.) was 1.7. The “Incorporation efficiency (wt %)” value ([3]; pH 6, 50° C.) was 0.2 wt %, the “Number of agent incorporated” value ([3]; pH 6, 50° C.) was 1.8 and the “Incorporation efficiency (wt %)” value ([3]; pH 6, 60° C.) was 0.4 wt %. The “Number of agent incorporated” value ([3]; pH 6, 60° C.) was 2.8, the “Incorporation efficiency (wt %)” value ([3]; pH 7, 25° C.) was 0.1 wt % and the “Number of agent incorporated” value ([3]; pH 7, 25° C.) was 0.7. The “Incorporation efficiency (wt %)” value ([3]; pH 8, 25° C.) was 0.1 wt %, the “Number of agent incorporated” value ([3]; pH 8, 25° C.) was 0.8 and the “Incorporation efficiency (wt %)” value ([3]; pH 9, 25° C.) was 0.1 wt %. The “Number of agent incorporated” value ([3]; pH 9, 25° C.) was 0.8 and the “Optimal pH in reaction” value [3] was 4.
For `CN1CC(=O)NC1=N` [Creatinine], the pKa [1] is given as 2.96, the logP [2] is given as −1.6 and the “Incorporation efficiency (wt %)” value ([3]; pH 4, 20° C.) is given as 0.4 wt %. For the same compound, the “Number of agent incorporated” value ([3]; pH 4, 20° C.) was 15.8, the “Incorporation efficiency (wt %)” value ([3]; pH 4, 60° C.) was 0.5 wt % and the “Number of agent incorporated” value ([3]; pH 4, 60° C.) was 24.8. For the same compound, the “Optimal pH in reaction” value [3] was 4.
In the case of `NC(N)=Nc1nc(CSCCC(N)=NS(N)(=O)=O)cs1` [Famotidine], the pKa [1] is listed as 8.38, the “Number of agent incorporated” value ([3]; pH 4, 40° C.) is listed as 0.0 and the “Number of agent incorporated” value ([3]; pH 6, 20° C.) is listed as 36.9. The “Number of agent incorporated” value ([3]; pH 6, 40° C.) was 15.1, the “Number of agent incorporated” value ([3]; pH 6, 60° C.) was 23.4 and the “Number of agent incorporated” value ([3]; pH 8, 40° C.) was 8.4. For the same compound, the “Number of agent incorporated” value ([3]; pH 10, 40° C.) was 5.1 and the “Optimal pH in reaction” value [3] was 6.
For `Nc1cc(N2CCCCC2)nc(N)[n+]1[O-]` [Minoxidil], the pKa [1] is listed as 4.61, the logP [2] is listed as 1.24 and the “Incorporation efficiency (wt %)” value ([3]; pH 4, 40° C.) is listed as 0.3 wt %. For the same compound, the “Number of agent incorporated” value ([3]; pH 4, 40° C.) was 8.3, the “Incorporation efficiency (wt %)” value ([3]; pH 6, 20° C.) was 2.6 wt % and the “Number of agent incorporated” value ([3]; pH 6, 20° C.) was 65.6. For the same compound, the “Incorporation efficiency (wt %)” value ([3]; pH 6, 40° C.) was 0.8 wt %, the “Number of agent incorporated” value ([3]; pH 6, 40° C.) was 20.0 and the “Incorporation efficiency (wt %)” value ([3]; pH 6, 60° C.) was 0.5 wt %. For the same compound, the “Number of agent incorporated” value ([3]; pH 6, 60° C.) was 12.0, the “Incorporation efficiency (wt %)” value ([3]; pH 8, 40° C.) was 0.5 wt % and the “Number of agent incorporated” value ([3]; pH 8, 40° C.) was 12.0. The “Incorporation efficiency (wt %)” value ([3]; pH 10, 40° C.) was 0.2 wt %, the “Number of agent incorporated” value ([3]; pH 10, 40° C.) was 4.3 and the “Optimal pH in reaction” value [3] was 6.
In the case of `NC(=O)c1cccnc1` [Nicotinamide], the pKa [1] is given as 3.35, the logP [2] is given as −0.37 and the “Incorporation efficiency (wt %)” value ([3]; pH 4, 40° C.) is given as 0.4 wt %. The “Number of agent incorporated” value ([3]; pH 4, 40° C.) was 15.6, the “Incorporation efficiency (wt %)” value ([3]; pH 6, 40° C.) was 0.2 wt % and the “Number of agent incorporated” value ([3]; pH 6, 40° C.) was 6.8. For the same compound, the “Incorporation efficiency (wt %)” value ([3]; pH 8, 40° C.) was 0.3 wt %, the “Number of agent incorporated” value ([3]; pH 8, 40° C.) was 13.9 and the “Incorporation efficiency (wt %)” value ([3]; pH 10, 40° C.) was 0.2 wt %. The “Number of agent incorporated” value ([3]; pH 10, 40° C.) was 7.6 and the “Optimal pH in reaction” value [3] was 4.
In the case of `Cc1cc2nc3c(=O)[nH]c(=O)nc-3n(C[C@H](O)[C@H](O)[C@H](O)CO)c2cc1C` [Riboflavin], the pKa [1] is listed as 10.2, the “Number of agent incorporated” value ([3]; pH 4, 40° C.) is listed as 6.4 and the “Number of agent incorporated” value ([3]; pH 6, 40° C.) is listed as 6.5. For the same compound, the “Number of agent incorporated” value ([3]; pH 8, 40° C.) was 6.4, the “Number of agent incorporated” value ([3]; pH 10, 40° C.) was 7.7 and the “Optimal pH in reaction” value [3] was 10.
In the case of `Cc1ncc(C[n+]2csc(CCO)c2C)c(N)n1` [Thiamine], the pKa [1] is listed as 5.5, the logP [2] is listed as −4.6 and the “Incorporation efficiency (wt %)” value ([3]; pH 4, 40° C.) is listed as 0.8 wt %. For the same compound, the “Number of agent incorporated” value ([3]; pH 4, 40° C.) was 11.6, the “Incorporation efficiency (wt %)” value ([3]; pH 6, 40° C.) was 0.9 wt % and the “Number of agent incorporated” value ([3]; pH 6, 40° C.) was 13.9. The “Incorporation efficiency (wt %)” value ([3]; pH 8, 40° C.) was 0.9 wt %, the “Number of agent incorporated” value ([3]; pH 8, 40° C.) was 13.7 and the “Incorporation efficiency (wt %)” value ([3]; pH 10, 40° C.) was 0.9 wt %. The “Number of agent incorporated” value ([3]; pH 10, 40° C.) was 13.6 and the “Optimal pH in reaction” value [3] was 6.
For Rhodamine B, the pKa [1] is listed as 3.1, the logP [2] is listed as 1.78 and the “Incorporation efficiency (wt %)” value ([3]; pH 4, 60° C.) is listed as 0.4 wt %. For the same compound, the “Number of agent incorporated” value ([3]; pH 4, 60° C.) was 4.3, the “Incorporation efficiency (wt %)” value ([3]; pH 5, 60° C.) was 1.5 wt % and the “Number of agent incorporated” value ([3]; pH 5, 60° C.) was 16.7. The “Incorporation efficiency (wt %)” value ([3]; pH 6, 60° C.) was 0.3 wt %, the “Number of agent incorporated” value ([3]; pH 6, 60° C.) was 3.5 and the “Incorporation efficiency (wt %)” value ([3]; pH 7, 60° C.) was 0.2 wt %. The “Number of agent incorporated” value ([3]; pH 7, 60° C.) was 2.3, the “Incorporation efficiency (wt %)” value ([3]; pH 8, 20° C.) was 1.0 wt % and the “Number of agent incorporated” value ([3]; pH 8, 20° C.) was 11.1. For the same compound, the “Incorporation efficiency (wt %)” value ([3]; pH 8, 60° C.) was 0.2 wt %, the “Number of agent incorporated” value ([3]; pH 8, 60° C.) was 1.8 and the “Incorporation efficiency (wt %)” value ([3]; pH 9, 30° C.) was 0.7 wt %. The “Number of agent incorporated” value ([3]; pH 9, 30° C.) was 7.6, the “Incorporation efficiency (wt %)” value ([3]; pH 9, 40° C.) was 0.4 wt % and the “Number of agent incorporated” value ([3]; pH 9, 40° C.) was 3.9. The “Incorporation efficiency (wt %)” value ([3]; pH 9, 50° C.) was 0.2 wt %, the “Number of agent incorporated” value ([3]; pH 9, 50° C.) was 2.6 and the “Incorporation efficiency (wt %)” value ([3]; pH 9, 60° C.) was 0.2 wt %. The “Number of agent incorporated” value ([3]; pH 9, 60° C.) was 2.5, the “Incorporation efficiency (wt %)” value ([3]; pH 10, 40° C.) was 0.3 wt % and the “Number of agent incorporated” value ([3]; pH 10, 40° C.) was 3.2. The “Incorporation efficiency (wt %)” value ([3]; pH 10, 50° C.) was 0.2 wt %, the “Number of agent incorporated” value ([3]; pH 10, 50° C.) was 2.6 and the “Incorporation efficiency (wt %)” value ([3]; pH 10, 60° C.) was 0.6 wt %. For the same compound, the “Number of agent incorporated” value ([3]; pH 10, 60° C.) was 6.6 and the “Optimal pH in reaction” value [3] was 5.

Source: patent US20210253651A1, “METHOD FOR PRODUCING ORGANIC COMPOUND-ENCAPSULATING FERRITIN” (Ajinomoto Co., Inc., priority 2018, published 2021)
